Measurements from article PMC9786103, “Potent and Selective Inhibition of CYP1A2 Enzyme by Obtusifolin and Its Chemopreventive Effects” (Pharmaceutics, 2022).

Key:
Format in all cases: biochemical
CYP2C8 = molecular target: T1, CYP2C8 (Homo sapiens, UniProt P10632); experiment: Amodiaquine N-deethylation in human liver microsomes; conditions: HLMs
T1 construct: Mixtures of pooled HLM, P450 substrates, and obtusifolin; tissue XenoTech XTreme 200; host or cells: pooled human liver microsomes
T1 sequence (P10632 1-490): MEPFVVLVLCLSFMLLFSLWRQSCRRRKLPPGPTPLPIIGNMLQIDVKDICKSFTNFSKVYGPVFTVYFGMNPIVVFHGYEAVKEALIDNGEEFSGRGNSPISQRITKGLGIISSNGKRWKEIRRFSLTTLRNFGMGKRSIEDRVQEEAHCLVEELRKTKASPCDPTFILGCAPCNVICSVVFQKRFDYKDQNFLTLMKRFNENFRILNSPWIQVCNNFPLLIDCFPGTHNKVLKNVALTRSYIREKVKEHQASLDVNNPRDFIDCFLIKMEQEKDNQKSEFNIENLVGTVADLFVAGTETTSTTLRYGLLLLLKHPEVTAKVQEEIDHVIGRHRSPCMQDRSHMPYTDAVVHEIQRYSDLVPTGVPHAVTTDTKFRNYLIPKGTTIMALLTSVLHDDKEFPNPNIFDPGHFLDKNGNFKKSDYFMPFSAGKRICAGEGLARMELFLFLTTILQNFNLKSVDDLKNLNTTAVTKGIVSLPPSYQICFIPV
Description: (§3) The following P450 isoform-specific substrates were used: coumarin (CYP2A6); bupropion (CYP2B6); amodiaquine (CYP2C8); tolbutamide (CYP2C9); omeprazole (CYP2C19); dextromethorphan (CYP2D6); chlorzoxazone (CYP2E1); and midazolam (CYP3A). […] NGS was introduced to start the reaction, which was followed by an additional incubation (15 min). Following reaction termination, aliquots of the supernatants were analyzed with LC-MS/MS.
(§4) Reverse phase column (Kinetex XB-C18, 100 × 2.10 mm; Phenomenex, Torrance, CA, USA) and triple-quadrupole mass spectrometer (LCMS 8060, Shimadzu, Kyoto, Japan) with an ultra high-performance LC system (Nexera X2, Shimadzu) analyze all the metabolites. […] For each metabolite, quantitation was carried out in selected reaction monitoring (SRM) mode using the following precursor-to-product ion transition: m/z 152 > 110 for acetaminophen (CYP1A2), m/z 214 > 186 for resorufin (CYP1A1 and CYP1A2), m/z 163 > 107 for 7-hydroxycoumarin (CYP2A6), m/z 256 > 238 for 6-hydroxybupropion (CYP2B6), m/z 328 > 283 for N-desethylamodiaquine (CYP2C8), m/z 287 > 89 for 5-hydroxytolbutamide (CYP2C9), m/z 362 > 214 for 4-hydroxyomeprazole (CYP2C9), m/z 258 > 157 for dextrorphan (CYP2D6), m/z 184 > 120 for 6-hydroxychlorzoxazone (CYP2E1), m/z 342 > 203 for 1′-hydroxymidazolam (CYP3A), and m/z 295 > 100 for trimipramine (IS) [23, 24].

rCYP1A1 [1] = molecular target: T2, rCYP1A1 (Homo sapiens, UniProt P04798); experiment: Recombinant CYP1A1 inhibition with 9-cis-retinal as substrate; conditions: substrate 9-cis-retinal
T2 construct: purchased SPMED (Busan, Republic of Korea)
T2 sequence (P04798 1-512): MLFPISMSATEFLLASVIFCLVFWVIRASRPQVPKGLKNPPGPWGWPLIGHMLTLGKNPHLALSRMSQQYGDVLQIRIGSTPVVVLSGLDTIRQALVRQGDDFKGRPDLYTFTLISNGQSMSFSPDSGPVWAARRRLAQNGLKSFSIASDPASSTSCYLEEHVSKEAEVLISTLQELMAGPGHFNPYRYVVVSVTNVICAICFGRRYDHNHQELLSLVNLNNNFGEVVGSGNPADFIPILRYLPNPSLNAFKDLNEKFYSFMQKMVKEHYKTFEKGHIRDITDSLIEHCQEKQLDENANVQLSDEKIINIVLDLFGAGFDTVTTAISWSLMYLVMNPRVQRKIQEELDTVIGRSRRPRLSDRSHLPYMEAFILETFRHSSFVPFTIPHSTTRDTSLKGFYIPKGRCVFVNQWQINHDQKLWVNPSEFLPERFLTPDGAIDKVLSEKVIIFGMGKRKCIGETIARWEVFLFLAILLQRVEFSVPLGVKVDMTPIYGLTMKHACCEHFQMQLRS
Description: (§1) Table 5 Inhibitory effects (IC50) of obtusifolin against recombinant CYP1A1 and CYP1A2. | column: IC50 (μM)

rCYP1A2 [2] = molecular target: T3, rCYP1A2 (Homo sapiens, UniProt P05177); experiment: Ethoxyresorufin O-deethylation (EROD) in recombinant CYP1A2; conditions: rCYP1A2 10 pmol/mL, 7-ethoxyresorufin 2 µM, 20 min; read-out: IC50, CYP1A2-mediated EROD
T3 construct: purchased SPMED (Busan, Republic of Korea)
T3 sequence (P05177 1-516): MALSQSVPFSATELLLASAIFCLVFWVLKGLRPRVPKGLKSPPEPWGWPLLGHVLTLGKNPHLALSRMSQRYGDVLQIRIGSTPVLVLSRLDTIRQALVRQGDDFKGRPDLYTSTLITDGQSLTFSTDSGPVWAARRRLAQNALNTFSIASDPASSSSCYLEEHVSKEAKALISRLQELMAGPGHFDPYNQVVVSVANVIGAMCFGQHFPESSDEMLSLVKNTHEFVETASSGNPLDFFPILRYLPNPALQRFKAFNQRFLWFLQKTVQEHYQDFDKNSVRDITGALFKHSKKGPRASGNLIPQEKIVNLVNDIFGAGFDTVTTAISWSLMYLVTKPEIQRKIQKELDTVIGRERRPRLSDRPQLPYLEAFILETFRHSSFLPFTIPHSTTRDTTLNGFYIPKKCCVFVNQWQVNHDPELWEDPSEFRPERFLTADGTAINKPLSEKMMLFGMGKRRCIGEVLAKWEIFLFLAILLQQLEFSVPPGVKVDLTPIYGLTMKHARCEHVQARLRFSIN
Description: (§2) The inhibitory effects of obtusifolin on the CYP1A-mediated ethoxyresorufin O-deethylation (EROD) activity of rCYP1A1 and rCYP1A2 enzymes (10 pmol/mL) were investigated. […] The other conditions, except for the incubation time (20 min), were similar to those used in the P450 inhibition study, as described earlier.

rCYP1A2 [3] = molecular target: T3, rCYP1A2; experiment: Recombinant CYP1A2 inhibition with 9-cis-retinal as substrate; conditions: substrate 9-cis-retinal
Description: as §1

other P450s = experiment: Inhibition of other P450s in human liver microsomes (summary); conditions: HLMs, P450s other than CYP1A2; read-out: IC50 against other P450s
Description: The inhibitory potential of obtusifolin against the biotransformation of eight P450 probe substrates was examined using previously reported methods with slight changes [21, 22]. The following P450 isoform-specific substrates were used: coumarin (CYP2A6); bupropion (CYP2B6); amodiaquine (CYP2C8); tolbutamide (CYP2C9); omeprazole (CYP2C19); dextromethorphan (CYP2D6); chlorzoxazone (CYP2E1); and midazolam (CYP3A). Mixtures of pooled HLM, P450 substrates, and obtusifolin (0, 0.05, 0.2, 0.5, 2, 5, or 10 µM for CYP1A2; and 0, 0.5, 2, 5, 20, or 50 µM for the other P450 isoforms) were pre-incubated (5 min, 37 °C). NGS was introduced to start the reaction, which was followed by an additional incubation (15 min). Following reaction termination, aliquots of the supernatants were analyzed with LC-MS/MS.

CYP2B6 = molecular target: T4, CYP2B6 (Homo sapiens, UniProt P20813); experiment: Bupropion 6-hydroxylation in human liver microsomes; conditions: HLMs
T4 construct: Mixtures of pooled HLM, P450 substrates, and obtusifolin; tissue XenoTech XTreme 200; host or cells: pooled human liver microsomes
T4 sequence (P20813 1-491): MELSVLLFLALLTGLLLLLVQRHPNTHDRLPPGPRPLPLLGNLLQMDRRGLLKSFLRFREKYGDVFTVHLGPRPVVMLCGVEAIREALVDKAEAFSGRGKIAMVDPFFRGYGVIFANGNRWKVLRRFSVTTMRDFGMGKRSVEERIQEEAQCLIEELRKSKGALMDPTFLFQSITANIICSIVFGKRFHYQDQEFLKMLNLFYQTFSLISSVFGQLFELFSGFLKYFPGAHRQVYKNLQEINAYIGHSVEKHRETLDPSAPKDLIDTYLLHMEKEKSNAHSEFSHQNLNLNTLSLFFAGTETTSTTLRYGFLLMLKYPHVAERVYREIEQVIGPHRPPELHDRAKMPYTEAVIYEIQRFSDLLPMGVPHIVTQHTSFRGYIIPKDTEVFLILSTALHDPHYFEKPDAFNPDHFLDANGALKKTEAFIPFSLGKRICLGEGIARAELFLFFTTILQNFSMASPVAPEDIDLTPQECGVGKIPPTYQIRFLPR
Description: as §3, §4

rCYP1A1 [4] = molecular target: T2, rCYP1A1; experiment: Ethoxyresorufin O-deethylation (EROD) in recombinant CYP1A1; conditions: rCYP1A1 10 pmol/mL, 7-ethoxyresorufin 2 µM, 20 min; read-out: IC50, CYP1A1-mediated EROD
Description: as §2

CYP2E1 = molecular target: T5, CYP2E1 (Homo sapiens, UniProt P05181); experiment: biochemical
T5 construct: Mixtures of pooled HLM, P450 substrates, and obtusifolin; tissue XenoTech XTreme 200; host or cells: pooled human liver microsomes
T5 sequence (P05181 whole entry): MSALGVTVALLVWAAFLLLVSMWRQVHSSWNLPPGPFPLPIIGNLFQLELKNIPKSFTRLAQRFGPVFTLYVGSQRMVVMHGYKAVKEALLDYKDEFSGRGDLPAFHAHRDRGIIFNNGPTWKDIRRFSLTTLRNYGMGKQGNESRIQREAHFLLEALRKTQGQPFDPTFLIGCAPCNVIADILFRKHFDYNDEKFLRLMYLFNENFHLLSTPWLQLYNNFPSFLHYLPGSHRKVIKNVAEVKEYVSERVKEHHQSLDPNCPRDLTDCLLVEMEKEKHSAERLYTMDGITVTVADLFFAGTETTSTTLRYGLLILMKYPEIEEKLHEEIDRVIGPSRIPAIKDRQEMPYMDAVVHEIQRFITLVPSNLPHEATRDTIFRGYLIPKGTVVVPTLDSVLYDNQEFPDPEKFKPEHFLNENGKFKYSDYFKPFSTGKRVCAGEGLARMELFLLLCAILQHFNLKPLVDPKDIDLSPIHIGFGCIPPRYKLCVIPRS
Description: as §3, §4

- IC50 (CYP2C8): 31.4 µM
- IC50 (rCYP1A1 [1]): > 10 µM
- IC50 (rCYP1A2 [2]): 0.57 ± 0.11 µM
- IC50 (rCYP1A2 [3]): 0.15 ± 0.03 µM
- IC50 (other P450s): > 28.6 µM
- IC50 (CYP2B6): > 50 µM
- IC50 (rCYP1A1 [4]): 0.39 ± 0.06 µM
- IC50 (CYP2E1): > 50 µM
- inhibition at 15 min, 0.5 µM (CYP2E1; human, microsomes): 30.7%
SMILES: COc1c(O)c(C)cc2c1C(=O)c1c(O)cccc1C2=O [Obtusifolin, obtusifolin]
